SMILES strings stand for the structures.

Assay [1] concerns the target T1, Adrenergic β2 (H292 cells) (Homo sapiens, UniProt P07550).
T1 construct: endogenous in cells; host or cells: H292 cells
Kind of assay: Adrenergic β2 Mediated cAMP Production, single concentration 1 μM. It is filed as cell-based. The settings on record: percentage of the maximum response generated by 1E-07M formoterol; for activation at 1 µM: NCI-H292, 1 μM compound, read-out: β2 (% effect at 1 μM). On the procedure: The following experimental procedure was used to measure the beta-2% effect at 1 μM for the compounds of Examples 116-263. Adrenergic β2 Mediated cAMP Production Cell Preparation
H292 cells are grown in 225 cm2 flasks incubator at 37° C., 5% CO2 in RPMI medium containing 10% (v/v) FBS (foetal bovine serum) and 2 mM L-glutamine.
Compounds were prepared by an initial first dilution into DMSO to give 1 mM stock concentration. This was followed by a 1 in 10 dilution of the stock concentration (10 μl stock compound+90 μl DMSO) to give 0.1 mM compound.
A compound addition plate was prepared by making a further 1 in 25 dilution in assay buffer (HBSS solution containing 10 mM HEPES pH7.4 and 5 mM glucose) containing 4% dimethylsulfoxide. The final compound concentration in assay is 1 μM.
Adherent H292 cells are removed from tissue culture flasks by treatment with Accutase™ cell detachment solution for 15 minutes. Flasks are incubated for 15 minutes in a humidified incubator at 37° C., 5% CO2. Detached cells are re-suspended in RPMI media (containing 10% (v/v) FBS and 2 mM L-glutamine) at 0.1×10^6 cells per mL. 10000 cells in 100 μL are added to each well of a tissue-culture-treated 96-well plate and the cells incubated overnight in a humidified incubator at 37° C., 5% CO2. The culture media is removed and cells are washed twice with 100 μL assay buffer and replaced with 50 μL assay buffer (HBSS solution containing 10 mM HEPES pH7.4 and 5 mM glucose). Cells are rested at room temperature for 20 minutes after which time 25 μL of rolipram (1.2 mM made up in assay buffer) is added. Cells are incubated with rolipram for 10 minutes after which time 25 μl test compounds are added and the cells are incubated for 60 minutes at room temperature. The final rolipram concentration in the assay is 300 μM and final vehicle concentration is 1% (v/v) dimethylsulphoxide. The reaction is stopped by removing supernatants, washing once with 100 μL assay buffer and replacing with 50 μL lysis buffer. The cell monolayer is frozen at −80° C. for 30 minutes (or overnight).
AlphaScreen™ cAMP Detection
The concentration of cAMP (cyclic adenosine monophosphate) in the cell lysate is determined using AlphaScreen™ methodology. The frozen cell plate is thawed for 20 minutes on a plate shaker then 10 μL of the cell lysate is transferred to a 96-well white plate. 40 μL of mixed AlphaScreen™ detection beads (containing equal volumes of donor beads (pre-incubated with biotinylated cAMP in the dark for 30 minutes) and acceptor beads is added to each well and the plate incubated at room temperature for 3 hours in the dark. The AlphaScreen™ signal is measured using an EnVision spectrophotometer (Perkin-Elmer Inc.) with the recommended manufacturer's settings. Concentration of cAMP produced per well were calculated with reference to the cAMP standard curve determined in the same experiment and expressed as a percentage of the maximum response generated by 1E-07M formoterol.

The target in assay [2] is T2, human muscarinic acetylcholine M3 receptor (M3-ACh) (Homo sapiens, UniProt P20309).
T2 construct: expressed in transfected cells; host or cells: CHO-K1 (Chinese Hamster Ovary) cell membranes
T2 sequence (P20309 whole entry): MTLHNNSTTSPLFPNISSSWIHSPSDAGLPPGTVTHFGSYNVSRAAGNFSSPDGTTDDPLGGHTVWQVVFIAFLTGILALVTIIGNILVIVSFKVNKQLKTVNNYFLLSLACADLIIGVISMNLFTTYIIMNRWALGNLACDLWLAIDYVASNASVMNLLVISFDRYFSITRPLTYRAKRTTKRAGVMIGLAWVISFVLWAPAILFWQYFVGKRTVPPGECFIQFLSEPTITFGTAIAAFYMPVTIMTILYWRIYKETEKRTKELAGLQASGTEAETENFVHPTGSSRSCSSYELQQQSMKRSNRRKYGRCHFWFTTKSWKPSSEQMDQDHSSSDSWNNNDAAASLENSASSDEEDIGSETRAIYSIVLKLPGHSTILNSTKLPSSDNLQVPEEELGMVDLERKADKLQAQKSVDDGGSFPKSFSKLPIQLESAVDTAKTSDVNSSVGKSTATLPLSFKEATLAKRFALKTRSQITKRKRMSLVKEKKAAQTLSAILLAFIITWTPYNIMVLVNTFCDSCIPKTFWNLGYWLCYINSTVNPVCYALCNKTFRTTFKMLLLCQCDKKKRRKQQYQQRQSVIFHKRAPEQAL
Briefly: Muscarinic 3 Receptor Binding Assay, % inhibition specific binding at 1 μM. The settings on record: 1 μM compound, % inhibition specific [3H]-NMS binding. The procedure: The following experimental procedure was used to determine the M3% inhibition at 1 μM of the compounds of Examples 116-263.
Muscarinic 3 Receptor Binding Assay
The activity (% inhibition specific binding) of compounds -on the M3 receptor is determined by competition binding of [^3H]N-methyl scopolamine (NMS) to CHO-K1 (Chinese Hamster Ovary) cell membranes expressing the human muscarinic acetylcholine M3 receptor (M3-ACh) in a scintillation proximity assay (SPA) format.
SPA beads are precoated with membranes and then incubated at 2 mg of beads per well with 1 μM compound of the invention, [^3H]NMS at 0.1 nM, quarter Kd (experimentally determined dissociation constant) and assay buffer (20 mM HEPES pH 7.4 containing 5 mM MgCl2). The assay is conducted in a final volume of 200 μL, in the presence of 1% (v/v) dimethyl sulphoxide (DMSO). Total binding of [^3H]NMS is determined in the absence of competing compound and non-specific binding of [^3H]NMS is determined in the presence of 1 μM atropine. The plates are incubated for 16 hours at room temperature and then read on Wallac Microbeta™ using a normalised ^3H protocol. The compound activity at 1 defined as % inhibition specific [^3H]-NMS binding, is determined.

T1 sequence (P07550 whole entry): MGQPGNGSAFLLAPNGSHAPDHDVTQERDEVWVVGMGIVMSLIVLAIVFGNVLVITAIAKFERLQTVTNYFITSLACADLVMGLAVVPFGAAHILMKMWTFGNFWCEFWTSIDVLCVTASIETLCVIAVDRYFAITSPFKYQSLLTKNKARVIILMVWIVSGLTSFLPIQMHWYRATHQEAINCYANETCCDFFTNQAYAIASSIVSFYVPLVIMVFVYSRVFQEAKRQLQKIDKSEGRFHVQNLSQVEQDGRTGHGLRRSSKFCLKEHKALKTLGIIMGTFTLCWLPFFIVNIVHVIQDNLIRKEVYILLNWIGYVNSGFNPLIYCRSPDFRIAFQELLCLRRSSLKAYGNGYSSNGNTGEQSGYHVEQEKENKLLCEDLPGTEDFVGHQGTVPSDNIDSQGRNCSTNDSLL

As usually defined, the inhibition is the drop in the measured response relative to a control, in per cent. With `Cc1cccc2nc(C(=O)N3CCOC4(CCN(Cc5cc(F)cc(CCNC[C@H](O)c6ccc(O)c7[nH]c(=O)sc67)c5)CC4)C3)cn12` [Example 133, (R)-7-(2-(3-fluoro-5-((4-(5-methylimidazo[1,2-a]pyridine-2-carbonyl)-1-oxa-4,9-diazaspiro[5.5]undecan-9-yl)methyl)phenethylamino)-1-hydroxyethyl)-4-hydroxybenzo[d]thiazol-2(3H)-one], the activation at 1 µM in assay [1] was 110%. The inhibition at 1 µM in assay [2] came out at 56%.

Take `Cc1n[nH]c(CC(=O)N2CCOC3(CCN(Cc4cc(F)cc(CCNC[C@H](O)c5ccc(O)c6[nH]c(=O)sc56)c4)CC3)C2)n1` [Example 134, (R)-7-(2-(3-fluoro-5-((4-(2-(3-methyl-1H-1,2,4-triazol-5-yl)acetyl)-1-oxa-4,9-diazaspiro[5.5]undecan-9-yl)methyl)phenethylamino)-1-hydroxyethyl)-4-hydroxybenzo[d]thiazol-2(3H)-one]: in assay [1], the activation at 1 µM is 116%. Besides, in assay [2], the inhibition at 1 µM came to 4%.

On to `CCn1c(=O)n(CC(=O)N2CCOC3(CCN(Cc4cc(F)cc(CCNC[C@H](O)c5ccc(O)c6[nH]c(=O)sc56)c4)CC3)C2)c2ccccc21` [Example 135, (R)-7-(2-(3-((4-(2-(3-ethyl-2-oxo-2,3-dihydro-1H-benzo[d]imidazol-1-yl)acetyl)-1-oxa-4,9-diazaspiro[5.5]undecan-9-yl)methyl)-5-fluorophenethylamino)-1-hydroxyethyl)-4-hydroxybenzo[d]thiazol-2(3H)-one], for which the activation at 1 µM in assay [1] turned out to be 106%. Further, the inhibition at 1 µM in assay [2] is 1%.

As to `COc1ccc(OC)c(C(=O)N2CCOC3(CCN(Cc4cc(F)cc(CCNC[C@H](O)c5ccc(O)c6[nH]c(=O)sc56)c4)CC3)C2)c1` [Example 136, (R)-7-(2-(3-((4-(2,5-dimethoxybenzoyl)-1-oxa-4,9-diazaspiro[5.5]undecan-9-yl)methyl)-5-fluorophenethylamino)-1-hydroxyethyl)-4-hydroxybenzo[d]thiazol-2(3H)-one], in assay [1], the activation at 1 µM was determined as 111%. In addition, the inhibition at 1 µM in assay [2] came to 26%.

For `O=C(c1c[nH]c2ccccc12)N1CCOC2(CCN(Cc3cc(F)cc(CCNC[C@H](O)c4ccc(O)c5[nH]c(=O)sc45)c3)CC2)C1` [Example 137, (R)-7-(2-(3-((4-(1H-indole-3-carbonyl)-1-oxa-4,9-diazaspiro[5.5]undecan-9-yl)methyl)-5-fluorophenethylamino)-1-hydroxyethyl)-4-hydroxybenzo[d]thiazol-2(3H)-one], the activation at 1 µM in assay [1] was 112%. Also, in assay [2], the inhibition at 1 µM was 13%.

As for `O=C(c1ccc2[nH]ccc2c1)N1CCOC2(CCN(Cc3cc(F)cc(CCNC[C@H](O)c4ccc(O)c5[nH]c(=O)sc45)c3)CC2)C1` [Example 138, (R)-7-(2-(3-((4-(1H-indole-5-carbonyl)-1-oxa-4,9-diazaspiro[5.5]undecan-9-yl)methyl)-5-fluorophenethylamino)-1-hydroxyethyl)-4-hydroxybenzo[d]thiazol-2(3H)-one], the activation at 1 µM in assay [1] was determined as 92%. The inhibition at 1 µM in assay [2] amounted to 27%.

`Cn1c(C(=O)N2CCOC3(CCN(Cc4cc(F)cc(CCNC[C@H](O)c5ccc(O)c6[nH]c(=O)sc56)c4)CC3)C2)cc2ccccc21` [Example 139, (R)-7-(2-(3-fluoro-5-((4-(1-methyl-1H-indole-2-carbonyl)-1-oxa-4,9-diazaspiro[5.5]undecan-9-yl)methyl)phenethylamino)-1-hydroxyethyl)-4-hydroxybenzo[d]thiazol-2(3H)-one]: in assay [1], the activation at 1 µM is 101%. In addition, the inhibition at 1 µM in assay [2] came to 34%.

Turning to `O=C(c1ccc2cc[nH]c2c1)N1CCOC2(CCN(Cc3cc(F)cc(CCNC[C@H](O)c4ccc(O)c5[nH]c(=O)sc45)c3)CC2)C1` [Example 140, (R)-7-(2-(3-((4-(1H-indole-6-carbonyl)-1-oxa-4,9-diazaspiro[5.5]undecan-9-yl)methyl)-5-fluorophenethylamino)-1-hydroxyethyl)-4-hydroxybenzo[d]thiazol-2(3H)-one], the activation at 1 µM in assay [1] was 109%. Moreover, the inhibition at 1 µM in assay [2] was found to be 76%.

For `CC(C)n1nnc2cc(C(=O)N3CCOC4(CCN(Cc5cc(F)cc(CCNC[C@H](O)c6ccc(O)c7[nH]c(=O)sc67)c5)CC4)C3)ccc21` [Example 142, (R)-7-(2-(3-fluoro-5-((4-(1-isopropyl-1H-benzo[d][1,2,3]triazole-5-carbonyl)-1-oxa-4,9-diazaspiro[5.5]undecan-9-yl)methyl)phenethylamino)-1-hydroxyethyl)-4-hydroxybenzo[d]thiazol-2(3H)-one], in assay [1], the activation at 1 µM was 100%. In addition, the inhibition at 1 µM in assay [2] is -3%.

For `Cc1ccc2nc(C)c(C(=O)N3CCOC4(CCN(Cc5cc(F)cc(CCNC[C@H](O)c6ccc(O)c7[nH]c(=O)sc67)c5)CC4)C3)n2c1` [Example 143, (R)-7-(2-(3-((4-(2,6-dimethylimidazo[1,2-a]pyridine-3-carbonyl)-1-oxa-4,9-diazaspiro[5.5]undecan-9-yl)methyl)-5-fluorophenethylamino)-1-hydroxyethyl)-4-hydroxybenzo[d]thiazol-2(3H)-one], in assay [1], the activation at 1 µM is 108%. Moreover, in assay [2], the inhibition at 1 µM stood at 2%.

On to `O=C(Cc1noc2ccccc12)N1CCOC2(CCN(Cc3cc(F)cc(CCNC[C@H](O)c4ccc(O)c5[nH]c(=O)sc45)c3)CC2)C1` [Example 144, (R)-7-(2-(3-((4-(2-(benzo[d]isoxazol-3-yl)acetyl)-1-oxa-4,9-diazaspiro[5.5]undecan-9-yl)methyl)-5-fluorophenethylamino)-1-hydroxyethyl)-4-hydroxybenzo[d]thiazol-2(3H)-one], for which the activation at 1 µM in assay [1] came to 101%. For the same compound, the inhibition at 1 µM in assay [2] came out at 35%.

Regarding `O=C(c1ccc(-c2ccccc2)cc1)N1CCOC2(CCN(Cc3cc(F)cc(CCNC[C@H](O)c4ccc(O)c5[nH]c(=O)sc45)c3)CC2)C1` [Example 145, (R)-7-(2-(3-((4-(biphenylcarbonyl)-1-oxa-4,9-diazaspiro[5.5]undecan-9-yl)methyl)-5-fluorophenethylamino)-1-hydroxyethyl)-4-hydroxybenzo[d]thiazol-2(3H)-one], the “β2 (% effect at 1 μM)” value in assay [1] (1 μM compound) was 53%. In addition, the “M3 (% inhibition at 1 μM)” value in assay [2] (1 µM) is given as 7%.

Regarding `O=C(c1[nH]nc2c1CCCC2)N1CCOC2(CCN(Cc3cc(F)cc(CCNC[C@H](O)c4ccc(O)c5[nH]c(=O)sc45)c3)CC2)C1` [Example 146, (R)-7-(2-(3-fluoro-5-((4-(4,5,6,7-tetrahydro-2H-indazole-3-carbonyl)-1-oxa-4,9-diazaspiro[5.5]undecan-9-yl)methyl)phenethylamino)-1-hydroxyethyl)-4-hydroxybenzo[d]thiazol-2(3H)-one], in assay [1], the activation at 1 µM came out at 96%. Besides, the inhibition at 1 µM in assay [2] is 41%.

(Values after patent US8148373B2, “Compounds” (AstraZeneca AB, priority 2008, dated 2012).)
